Peptide text beside a SMILES is read from it. * marks the point of attachment. Cbz = O=C(OCc1ccccc1)*

What all share (type): cell-based
Assay [1] relates to E-cadherin. Description: MG132 treatment of PANC-1 cells stably expressing shCTRL or shPAK4, western blot for E-cadherin (normalized by Vinculin). The note with it: specific concentrations of MG132 for 24 hours. As to the method:
(§1) Experiment Method: PANC-1 cells were treated with 20 μg/mL cycloheximide (CHX), harvested at designated time points, and detected by western blot for E-cadherin, ZEB1, and Vinculin antibodies (left side of FIG. 5A). Quantitative evaluation of E-cadherin and ZEB1 protein levels was performed (normalized by Vinculin, right side of FIG. 5A). SU.86.86 and PANC-1 cells were cultured overnight in 1% P/S/10% FBS/DMEM, then converted to DMEM without Ca2+, and cultured for a specific time. E-cadherin, ZEB1, and Vinculin were detected by western blot (top side of FIG. 5B). E-cadherin and ZEB1 protein levels were quantitatively assessed (normalized by Vinculin, bottom side of FIG. 5B). PANC-1 cells stably expressing shCTRL or shPAK4 were treated with specific concentrations of MG132 for 24 hours and then detected by western blot for E-cadherin, ZEB1, and Vinculin antibodies (left side of FIG. 5C). E-cadherin and ZEB1 protein levels were quantitatively assessed (normalized by Vinculin, right side of FIG. 5C), After PANC-1 cells stably expressing shCTRL or shPAK4 were cultured in a serum-free medium for a certain period of time, activated Cdc42 and Rac1 interacting with GST-PBD-agarose were harvested from whole cell proteins. The activity of Cdc42 and Rac1 was detected by western blot (FIG. 5D). […]
In general terms: A western blot detects proteins with antibodies after separation by electrophoresis.

A further assay deals with ZEB1. In words: Cycloheximide treatment of PANC-1 shCTRL/shPAK4 cells, western blot for ZEB1 (normalized by Vinculin). The note with it: 20 μg/mL cycloheximide. As to the method:
as §1

The subject of assay [2] is E-cadherin. In words: Cycloheximide treatment of PANC-1 shCTRL/shPAK4 cells, western blot for E-cadherin (normalized by Vinculin). The settings on record: 20 μg/mL cycloheximide. As to the method:
as §1

Where [3] appears, read: PANC-1 PAK4 knockdown (shPAK4) cells.
Setting [4] is: PANC-1 shCTRL cells, harvested at designated time points.

For `CC(C)C[C@@H](C=O)NC(=O)[C@H](CC(C)C)NC(=O)[C@H](CC(C)C)NC(=O)OCc1ccccc1` [MG132] (Cbz-Leu-Leu-Leu-aldehyde), the “amount of protein of E-cadherin” value in the assay on E-cadherin [1] (setting [3]) is recorded as “such a pattern was not observed”; in the assay with E-cadherin [1] (PANC-1 shCTRL cells) it was “decreased in a concentration-dependent manner”.
Consider `C[C@@H]1C[C@@H]([C@H](O)CC2CC(=O)NC(=O)C2)C(=O)[C@@H](C)C1` [cyclohexamide, cycloheximide], for which the ZEB1 expression result with ZEB1 (setting [3]) is “significantly reduced”. For the same compound, in the assay on ZEB1 (setting [4]), the ZEB1 production entry was “inhibited”. In addition, the E-cadherin expression entry in the assay on E-cadherin [2] (setting [3]) is on record as “remained the same”. Also, the E-cadherin production result in the assay with E-cadherin [2] (setting [4]) is “inhibited”.

For the origin of these results see patent publication US20260235580A1, “P21-ACTIVATED KINASE 4 INHIBITION AND E-CADHERIN […] AND SCREENING METHOD THEREFOR” (priority 2023, published 2026).
